{
  "source": "patent US7884067B2",
  "about": "“Peptides derived from cadherin and methods of use thereof” (Mount Sinai School of Medicine of New York University, priority 2001, dated 2011)",
  "key": {"[1]": {"test_system": "E-cadherin/catenin cytoskeletal complex", "experiment": "Ionomycin-induced CAJ disassembly in A431 cells, subcellular fractionation and Western blot", "assay_type": "cell-based, human", "conditions": "30 minutes preincubation with L-685,458, then ionomycin", "description": "Subcellular fractionation. Confluent A431 cells (one 100 mm dish) were rinsed and scraped with 4° C. phosphate-buffered saline (PBS). Cells were then placed into 1 ml of buffer A (20 mM Tris-HCl [pH 7.5], 0.25 M sucrose, 10 mM EGTA, 2 mM EDTA, 1× Complete protease inhibitor cocktail, Roche), passed through a 27 gauge needle 10 times, and the obtained cell lysate was centrifuged at 500×g for 10 min at 4° C. The supernatant was then centrifuged at 120,000×g for 45 min at 4° C. to separate the cytosolic and crude membrane fractions. The pellet (crude membrane fraction) was washed twice with buffer A and resuspended by sonication in […] of buffer A containing 1% Triton X-100. The suspension was incubated at 4° C. for 30 min and then centrifuged at 120,000×g for 45 min at 4° C. to separate the membrane and Triton X-100-insoluble fractions. The pellet (Triton X-100-insoluble fraction) was washed twice with buffer A and solubilized by sonication in RIPA buffer. […] of proteins from the different fraction were analyzed by SDS-PAGE.\nIn stable cell-cell adhesion, the E-cadherin/β-catenin complex of the CAJ is anchored to the actin cytoskeleton via catenin and this association is manifested by the insolubility of the complex components in Triton X-100 (Baki et al., (2001)). Induction of apoptosis or calcium influx disrupts cadherin-mediated cell-cell adhesion by cleaving cadherin and disassembling the CAJ complexes. To determine whether the γ-secretase cleavage of E-cadherin is involved in the CAJ disassembly, calcium influx was induced with ionomycin (10 μM) in A431 cells preincubated for 30 minutes in the absence or presence of the γ-secretase inhibitor L-685,458. Cell extracts were fractionated, and analyzed on Western blots with antibodies against cytoplasmic E-cadherin C36 or β- and α-catenins. […] In addition, L-685,458 delayed the ionomycin-induced decrease of cytoskeletal β-catenin and α-catenin and inhibited their release to the soluble cytosol."}, "[2]": {"test_system": "N-cadherin", "experiment": "N-cadherin processing in fibroblast cultures (Western blot, C32)", "assay_type": "cell-based, mouse", "conditions": "WT fibroblasts, L-685,458 (0.5 μM), 16 hours", "description": "Extracts from PS1+/+ or PS1−/− mouse embryos were probed on WBs with either anti-cytoplasmic N-cadherin antibody (FIG. 7A, upper panel) or anti-PS I/CTF antibody 33B10 (FIG. 7A, lower panel). Extracts from PS1+/+ or PS1−/− fibroblast cultures were incubated for 16 hours in the absence or presence of DMSO, L-685,458 (0.5 μM) and probed on WBs with either C32 or 33B10 antibodies."}, "[3]": {"test_system": "N-cadherin", "experiment": "In vitro ε-cleavage assay, membranes from mouse fibroblasts or N2a cell cultures", "assay_type": "biochemical", "set-up": "dose or concentration left out as unconfirmed", "conditions": "cultures incubated 16 hours with L-685,458; membranes 37° C. 2 hours", "description": "In vitro γ-secretase-like ε-cleavage assay. Cells were washed in PBS, resuspended in 1 ml of 4° C. hypotonic buffer (10 mM MOPS, pH 7.0, 10 mM KCl) and homogenized on ice. A post-nuclear supernatant was prepared by centrifugation at 1000×g for 15 minutes at 4° C. Crude membranes were isolated from the post-nuclear supernatant by centrifugation at 16,000×g for 40 minutes at 4° C. The membranes were then resuspended in […] of assay buffer (150 mM sodium citrate, pH 6.4, 1× Complete protease inhibitor cocktail), and incubated at 37° C. for 2 hours. Samples were either analyzed directly by WB or separated into pellet (P100) and supernatant (S100) fractions by ultracentrifugation for 1 hour at 100,000×g at 4° C. The S100 and P100 fractions were then analyzed by WB.\nTo detect the product of the PS1-dependent cleavage of N-cadherin, an in vitro assay that uses incubation of membrane fractions to detect the ICD product of the E-cleavage of APP was used. (Gu et al. (2001) J. Biol. Chem. 276:35235-35238; McLendon et al. (2000) FASEB J. 14:2383-2386). […]"}},
  "data": [
    {"smiles": "CC(C)C[C@H](NC(=O)[C@H](Cc1ccccc1)C[C@@H](O)[C@H](Cc1ccccc1)NC(=O)OC(C)(C)C)C(=O)N[C@@H](Cc1ccccc1)C(N)=O", "note": "[L-685,458]", "values": [
      {"measurement": "ionomycin-induced decrease of cytoskeletal β-catenin and α-catenin", "setting": "[1]", "value": "delayed"},
      {"measurement": "ionomycin-induced degradation of the full length E-cadherin", "setting": "[1]", "value": "partially inhibited"},
      {"measurement": "ionomycin-induced metabolism of cytoskeletal E-Cad/CTF1", "setting": "[1]", "value": "blocked"},
      {"measurement": "production of soluble cytosolic E-Cad/CTF2", "setting": "[1]", "value": "abolished"},
      {"measurement": "release of β-catenin and α-catenin to the soluble cytosol", "setting": "[1]", "value": "inhibited"},
      {"measurement": "40 kDa peptide N-Cad/CTF1", "setting": "[2]", "value": "accumulates"},
      {"measurement": "soluble 35 kDa peptide N-Cad/CTF2", "setting": "[3]", "value": "completely absent"}
    ]}
  ]
}
